This is an account of results in patent publication EP4000606A1, “COMPOUNDS FOR CORONAVIRUS INFECTION TREATMENT AND/OR PREVENTION” (priority 2020, dated 2022).

The subject of the test is SARS-CoV-2. The experiment in a line: microbe, parasite or virus in culture. In kind it is cell-based.
Setting [1] is: Severe acute respiratory syndrome coronavirus 2, 120 h.
The mark [2] stands for this setting: confluence of SARS-CoV-2 infected VeroE6-EGFP cells after test compound treatment compared to control wells, 5 days.

Read-outs that look alike come from different tables or passages of the source.

For `CCCCOCCOc1ccc(-c2ccc3c(c2)C=C(C(=O)Nc2ccc([S@@+]([O-])Cc4cncn4CCC)cc2)CCCN3CC(C)C)cc1` [compound 65, (-)-(S)-8-[4-(2-Butoxyethoxy)phenyl]-1-isobutyl-N-[4-(1-propyl-1H-imidazol-5-ylmethylsulfinyl)phenyl]-1,2,3,4-tetrahydro-1-benzazocine-5-carboxamide], the “Maximum confluence reached (%)” value (5 days) was determined as 70.92%. Besides, the half-maximal inhibitory concentration (IC50) (Severe acute respiratory syndrome coronavirus 2, 120 h, half maximal concentration able to recover the cytopathic effect of infection, VeroE6-EGFP cells, 0.01 MOI, 5 days, 8 concentrations, read-out: IC50) worked out at 55 µM.

On to `CC(C)(C)c1cc(C=C(C#N)C#N)cc(C(C)(C)C)c1O` [compound 66, (3,5-Di-tert-butyl-4-hydroxybenzylidene)malononitrile], for which the “Maximum confluence reached (%)” value (5 days) was 47.6%.

Consider `O=C(C1CC1)N1CC[C@@H](Cc2n[nH]c(=O)n2-c2ccc(-c3ccc4ccoc4c3)cc2)C1` [compound 67, 4-[4-(1-Benzofuran-6-yl)phenyl]-5-[1-(cyclopropylcarbonyl)pyrrolidin-3(S)-ylmethyl]-3,4-dihydro-2H-1,2,4-triazol-3-one], for which the “Maximum confluence reached (%)” value (5 days) is reported as 31.06%. This compound also had an IC50 under setting [1] of 17 µM.

For the compound `Cn1c(Nc2ccc(C(F)(F)F)cc2)nc2cc(Oc3ccnc(-c4nc(C(F)(F)F)c[nH]4)c3)ccc21` [compound 70, 1-Methyl-N-[4-(trifluoromethyl)phenyl]-5-[2-[4-(trifluoromethyl)-1H-imidazol-2-yl]pyridin-4-yloxy]-1H-benzimidazol-2-amine], the “Maximum confluence reached (%)” value (5 days) is reported as 44.1%.

With `O=C(Nc1ccc(Cl)c(Cl)c1)Nc1ccc(Cl)c(Cl)c1` [compound 72, 1,3-Bis(3,4-dichlorophenyl)urea], under “5 days”, the “Maximum confluence reached (%)” value was found to be 45.87%.

For the compound `O=[N+]([O-])c1ccc(N/N=C/c2sc(N3CCOCC3)nc2-c2ccccc2)c(S(=O)(=O)Nc2ccccc2Cl)c1` [compound 73, N-(2-chlorophenyl)-2-[(2E)-2-[(2-morpholin-4-yl-4-phenyl-1,3-thiazol-5-yl)methylidene]hydrazinyl]-5-nitrobenzenesulfonamide], for the setting “5 days”, the “Maximum confluence reached (%)” value is 53.9%.

As to `CC(C)(C)C(=O)C(=Cc1cccc([N+](=O)[O-])c1)n1cncn1` [compound 76, 4,4-dimethyl-1-(3-nitrophenyl)-2-(1H-1,2,4-triazol-1-yl)-1-penten-3-one], the “Maximum confluence reached (%)” value stood at 50.44%. This compound had an IC50 under setting [1] of 4.33 µM.

On to `CC(C)COCC(CN(Cc1ccccc1)c1ccccc1)N1CCCC1.Cl.O` (stereo not shown) [compound 78, 1-[1-(N-Benzylanilino)-3-isobutoxy-2-propyl]pyrrolidine monohydrochloride monohydrate], for which, under “5 days”, the “Maximum confluence reached (%)” value is 30.41%.

For `COc1ccc2cc1Oc1ccc(cc1)C[C@H]1c3cc(c(OC)cc3CCN1C)Oc1c(OC)c(OC)cc3c1[C@H](C2)N(C)CC3` [compound 79, (1beta)-(S,S)-6,6',7,12-Tetramethoxy-2,2'-dimethylberbaman], the “Maximum confluence reached (%)” value (5 days) is listed as 99.64%.

With `CCN(CC)CCO[C@H]1CC[C@@]2(C)C(=CC[C@@H]3[C@@H]2CC[C@]2(C)C(=O)CC[C@@H]32)C1.Cl` [compound 80, 3beta-[2-(Diethylamino)ethoxy]androst-5-en-17-one hydrochloride], the “Maximum confluence reached (%)” value (5 days) worked out at 44.66%.

Regarding `O=C(c1c2ccccc2cc2ccccc12)N1CCC(N2CCC[C@@H](C(=O)N3CCOCC3)C2)CC1` [compound 81, 1-[1'-(Anthracen-9-ylcarbonyl)-1,4'-bipiperidin-3(R)-yl]-1-(4-morpholinyl)methanone], the “Maximum confluence reached (%)” value under setting [2] turned out to be 51%.

As for `CCN(CC)CCOc1ccc(C(=C(Cl)c2ccccc2)c2ccccc2)cc1.O=C(O)CC(O)(CC(=O)O)C(=O)O` [compound 82, 2-[4-(2-Chloro-1,2-diphenylvinyl)phenoxy]-N,N-diethylethanamine citrate], the “Maximum confluence reached (%)” value (5 days) is listed as 54.73%.

Turning to `CCN(CC)CCOc1ccc2c(c1)C(=O)c1cc(OCCN(CC)CC)ccc1-2` [compound 84, 2,7-Bis[2-(diethylamino)ethoxy]-9H-fluoren-9-one], the “Maximum confluence reached (%)” value (5 days) is reported as 68.89%.

As for `Cc1cccc(Nc2nc(-c3ccncc3)cs2)c1` [compound 85, N-(3-Methylphenyl)-4-(4-pyridyl)thiazol-2-amine], the “Maximum confluence reached (%)” value (5 days) is listed as 47.81%.

Turning to `O=S(=O)(NCC1CC1)c1ccc(Nc2nccc(N3CCCc4cc(O)ccc43)n2)cc1` [compound 86, N-(Cyclopropylmethyl)-4-[[4-(3,4-dihydro-6-hydroxy-1(2H)-quinolinyl)-2-pyrimidinyl]amino]benzenesulfo namide], under “5 days”, the “Maximum confluence reached (%)” value amounted to 55.04%.

`CC(C)N1CCN(c2ccc(C(=O)c3c(-c4ccc(O)cc4)sc4cc(O)ccc34)cc2)CC1` [compound 87, 1-[6-Hydroxy-2-(4-hydroxyphenyl)-1-benzothien-3-yl]-1-[4-(4-isopropylpiperazin-1-yl)phenyl]methanone]: the “Maximum confluence reached (%)” value (5 days) came to 41.04%.

As for `CN(C)CCC=C1c2ccccc2C=Cc2ccccc21.Cl` [compound 90, 3-(5H-Dibenzo[a,d]cyclohepten-5-ylidene)-N,N-dimethylpropan-1-amine hydrochloride], the “Maximum confluence reached (%)” value was 70,19%. This compound also came in with a half-maximal inhibitory concentration (IC50) under setting [1] of 12.1 µM.

For the compound `Cc1ccc(NC(=O)Nc2cc(C(F)(F)F)ccc2F)cc1Nc1ccc2c(c1)NC(=O)C2=Cc1ccc[nH]1` [compound 92, 1-[2-Fluoro-5-(trifluoromethyl)phenyl]-3-[4-methyl-3-[2-oxo-3-(1H-pyrrol-2-ylmethylene)-2,3-dihydro-1H-indol-6-ylamino]phenyl]urea], the “Maximum confluence reached (%)” value (5 days) is on record as 75.5%. Also, the 50% inhibitory concentration (IC50) under setting [1] was determined as 5.23 µM.

Turning to `CN1CCN(CCCN2c3ccccc3Sc3ccc(C(F)(F)F)cc32)CC1.Cl.Cl` [compound 94, 10-[3-(4-Methylpiperazin-1-yl)propyl]-2-(trifluoromethyl)-10H-phenothiazine dihydrochloride], the “Maximum confluence reached (%)” value (5 days) is 37.97%.

For `COc1cc2c(NC3CCN(C(C)C)CC3)nc(N3CCC(F)(F)CC3)nc2cc1OCCCN1CCCC1` [compound 95, 2-(4,4-Difluoropiperidin-1-yl)-6-methoxy-N-[1-(propan-2-yl)piperidin-4-yl]-7-[3-(pyrrolidin-1-yl)propoxy]quinazolin-4-amine], the “Maximum confluence reached (%)” value (5 days) came to 31.06%.

In the case of `CC[C@@]1([C@@H]2O[C@@H]([C@H]3O[C@@](O)(COC(=O)Nc4ccccc4)[C@H](C)C[C@@H]3C)C[C@@H]2C)CC[C@H]([C@]2(C)CC[C@]3(C[C@H](O)[C@@H](C)[C@@H]([C@@H](C)[C@@H](OC)[C@H](C)C(=O)[O-])O3)O2)O1.[Na+]` [compound 98, 4(S)-[(2S,5R,7S,8R,9S)-2-[(2S,2'R,3'S,5R,5'R)-2-Ethyl-5'-[6(R)-hydroxy-3(S),5(R)-dimethyl-6-(phenylaminocarbonyloxymethyl)tetrahydropyran-2(S)-yl]-3'-methylperhydro-2,2'-bifuran-5-yl]-9-hydroxy-2,8-dimethyl-1,6-dioxaspiro[4.5]dec-7-yl]-3(R)-methoxy-2(S)-methylpentanoic acid sodium salt], for the setting “5 days”, the “Maximum confluence reached (%)” value is 38.24%. Half-maximal inhibition under setting [1] (IC50) required 3.18 µM.

Turning to `CC(C)(C)c1cc(C=C(C#N)C#N)cc(Br)c1O` [compound 99, 2-(3-Bromo-5-tert-butyl-4-hydroxybenzylidene)propanedini trile 2-(3-Bromo-5-tert-butyl-4-hydroxybenzylidene)malononitrile], under “5 days”, the “Maximum confluence reached (%)” value is reported as 37.27%. This compound also showed an IC50 under setting [1] of 7.23 µM.

With `Cl.O=C(c1c2ccccc2cc2ccccc12)N1CCC(N2CCC[C@@H](C(=O)N3CCOCC3)C2)CC1` [compound 101, 1-[1'-(Anthracen-9-ylcarbonyl)-1,4'-bipiperidin-3(R)-yl]-1-(4-morpholinyl)methanone hydrochloride], the “Maximum confluence reached (%)” value (5 days) is reported as 50.88%.

As to `Oc1c(Cl)cc(Cl)cc1Sc1cc(Cl)cc(Cl)c1O` [compound 102, 2,2'-Thio-bis(4,6-dichlorophenol), Bis(2-hydroxy-3,5-dichlorophenyl) sulfide], the “Maximum confluence reached (%)” value (5 days) was found to be 31.25%.

As to `CC(C)(C)c1cc(C=C(C#N)C#N)cc(C(C)(C)C)c1O` [compound 103, (3,5-Di-tert-butyl-4-hydroxybenzylidene)malononitrile], for the setting “5 days”, the “Maximum confluence reached (%)” value is recorded as 51.51%. Half-maximal inhibition under setting [1] (IC50) required 205 µM.

As for `Nc1ccc(C(=O)Nc2cccc(-c3nc(N4CCOCC4)c4oc5ncccc5c4n3)c2)cn1` [compound 104, 6-Amino-N-[3-[4-(4-morpholinyl)pyrido[3',2':4,5]furo [3,2-d]pyrimidin-2-yl]phenyl]pyridine-3-carboxamide], the “Maximum confluence reached (%)” value (5 days) is reported as 35.48%.

Regarding `O=C(O)c1ccc(N2C(=O)C(=Cc3ccc(-c4ccc([N+](=O)[O-])cc4)o3)C=C2c2ccccc2)cc1` [compound 105, 4-[3-[5-(4-Nitrophenyl)furan-2-ylmethylene]-2-oxo-5-phenyl-2,3-dihydro-1H-pyrrol-1-yl]benzoic acid], the “Maximum confluence reached (%)” value (5 days) was found to be 52.15%. For the same compound, under setting [1], the half-inhibitory concentration (IC50) is 236 µM.

For the compound `CC(C)C[C@H](NC(=O)CNC(=O)c1cc(Cl)ccc1Cl)B(O)O` [compound 108, 1(R)-[2-(2,5-Dichlorobenzamido)acetamido]-3-methylbutylboronic acid], the “Maximum confluence reached (%)” value (5 days) came out at 30.79%. Moreover, the IC50 under setting [1] worked out at 135 µM.

`CN1CCN(CC/C=C2/c3ccccc3Sc3ccc(S(=O)(=O)N(C)C)cc32)CC1` [compound 109, (Z)-N,N-Dimethyl-9-[3-(4-methyl-1-piperazinyl)propylidene]thioxant hene-2-sulfonamide]: the “Maximum confluence reached (%)” value (5 days) came out at 36.55%.

Turning to “(1R,2S,3R)-3-(6-Amino-9H-purin-9-yl)-1,2-cyclopentanediol [compound 75]”, the “Maximum confluence reached (%)” value under setting [2] is listed as 33.14%. For the same compound, the IC50 (half maximal concentration able to recover the cytopathic effect of infection, VeroE6-EGFP cells, 0.01 MOI, 5 days, 8 concentrations, read-out: IC50) is 0.36 µM.

Take “(4R,4aS)-18-Ethenyl-4,4a-dihydro-3,4-bis(methoxycarbonyl)-4a,8,14,19-tetramethyl-24H,26H-benzo[b]porphine-9,13-dipropanoic acid monomethyl ester [compound 39]”: the “Maximum confluence reached (%)” value (5 days) came to 89.5%. Further, the IC50 (read-out: IC50) is 30 µM.
